For six compounds, IC50 and inhibition results are on record in ChEMBL document CHEMBL1150010, “Inhibition of cartilage degradation by isothiazoloquinolinones” (Bioorg Med Chem Lett, 1994).

Structures are written as SMILES.

The first test is filed under the species Bos taurus. In words: In vitro inhibition of IL1-beta (interleukin-1-beta) induced degradation of bovine nasal cartilage in an organ culture assay. In kind it is functional.
Regarding `O=c1cc2c3ccccc3sn2c2ccccc12`, the IC50 (in general, the concentration that inhibits the measured activity by half) is 8 µM. `O=c1cc2c3cccnc3sn2c2ccccc12` gave an IC50 of 22 µM.

For another test, the species on record is Bos taurus. In words: In vitro inhibition of IL1-beta (interleukin-1-beta) induced degradation of bovine nasal cartilage in an organ culture assay at 30 uM. In kind it is functional.
Turning to `COc1cc2c(=O)cc3c4ccccc4sn3c2c(OC)c1OC`, the inhibition (in general, the percentage by which the read-out fell short of the control) at 30 µM turned out to be 80%. With `O=c1cc2c3ccccc3sn2c2ccc(Cl)cc12`, the inhibition at 30 µM is 84%. `COc1cccc2c1sn1c3ccccc3c(=O)cc21` gave an inhibition at 30 µM of 30%.

In turn, `COc1cccc2c(=O)cc3c4ccccc4sn3c12` had an inhibition at 30 µM of 74%.
